According to ChEMBL document CHEMBL4184283, “High expression of class III β-tubulin has no impact on functional cancer cell growth inhibition of a series of key vinblastine analogs” (Bioorg Med Chem Lett, 2018):

Legend:
A549 = experiment: Growth inhibition of human A549 cells; format: functional, cell-based
[1] = Selectivity ratio of IC50 for human HCT116/VM46 cells over-expressing P-gp to IC50 for human HCT116 cells; format: functional
[2] = Growth inhibition of human A549-T24 cells over-expressing class-3 beta-tubulin; format: functional
[3] = Selectivity ratio of IC50 for human A549-T24 cells over-expressing class-3 beta-tubulin to IC50 for human A549 cells; format: functional
HCT-116 = experiment: Growth inhibition of human HCT116 cells after 72 hrs by phosphatase assay; format: functional, cell-based; conditions: HCT-116, 72 h
L1210 = experiment: Growth inhibition of mouse L1210 cells after 72 hrs by phosphatase assay; format: functional, cell-based; conditions: L1210, 72 h
HCT-116/VM46 = experiment: Growth inhibition of human HCT116/VM46 cells over-expressing P-gp after 72 hrs by phosphatase assay; format: functional, cell-based; conditions: HCT-116/VM46, 72 h

Compound | IC50 (A549) | Ratio IC50 [1] | IC50 [2] | Ratio IC50 [3] | IC50 (HCT-116) | IC50 (L1210) | IC50 (HCT-116/VM46)
CC[C@]1(O)C[C@H]2CN(CCc3c([nH]c4ccc(F)cc34)[C@@](C(=O)OC)(c3cc4c(cc3OC)N(C)[C@H]3[C@@](O)(C(=O)OC)[C@H](OC(C)=O)[C@]5(CC)C=CCN6CC[C@]43[C@@H]65)C2)C1 | 2.9 nM | 100 | 0.8 nM | <1 |  |  | 
CC[C@]1(NC(=O)c2ccc3c(c2)CCCC3)C[C@H]2CN(CCc3c([nH]c4ccc(F)cc34)[C@@](C(=O)OC)(c3cc4c(cc3OC)N(C)[C@H]3[C@@](O)(C(=O)OC)[C@H](OC(C)=O)[C@]5(CC)C=CCN6CC[C@]43[C@@H]65)C2)C1 | 7.6 nM | 1.8 | 6.5 nM | <1 | 4.9 nM | 3 nM | 8.7 nM
CC[C@]1(NC(=O)c2ccc3c(c2)CCCO3)C[C@H]2CN(CCc3c([nH]c4ccc(F)cc34)[C@@](C(=O)OC)(c3cc4c(cc3OC)N(C)[C@H]3[C@@](O)(C(=O)OC)[C@H](OC(C)=O)[C@]5(CC)C=CCN6CC[C@]43[C@@H]65)C2)C1 | 1.4 nM | 3.8 | 0.8 nM | <1 | 0.5 nM | 0.4 nM | 1.8 nM
CC[C@]1(NC(=O)N2Cc3ccc(NC(=O)c4cccnn4)cc3C2)C[C@H]2CN(CCc3c([nH]c4ccc(F)cc34)[C@@](C(=O)OC)(c3cc4c(cc3OC)N(C)[C@H]3[C@@](O)(C(=O)OC)[C@H](OC(C)=O)[C@]5(CC)C=CCN6CC[C@]43[C@@H]65)C2)C1 | 0.53 nM | 12 | 0.26 nM | <1 | 0.07 nM | 0.06 nM | 0.87 nM
CC[C@]1(NC(=O)N2Cc3ccccc3C2)C[C@H]2CN(CCc3c([nH]c4ccc(F)cc34)[C@@](C(=O)OC)(c3cc4c(cc3OC)N(C)[C@H]3[C@@](O)(C(=O)OC)[C@H](OC(C)=O)[C@]5(CC)C=CCN6CC[C@]43[C@@H]65)C2)C1 | 0.7 nM | 12 | 0.7 nM | 1 | 0.6 nM | 0.5 nM | 7.5 nM
CC[C@]1(NC(=O)N2Cc3ccc(NC(=O)c4cnccn4)cc3C2)C[C@H]2CN(CCc3c([nH]c4ccc(F)cc34)[C@@](C(=O)OC)(c3cc4c(cc3OC)N(C)[C@H]3[C@@](O)(C(=O)OC)[C@H](OC(C)=O)[C@]5(CC)C=CCN6CC[C@]43[C@@H]65)C2)C1 | 0.19 nM | 12 | 0.09 nM | <1 | 0.07 nM | 0.06 nM | 0.83 nM
CC[C@]1(NC(=O)N2Cc3ccc(NC(=O)c4ccncn4)cc3C2)C[C@H]2CN(CCc3c([nH]c4ccc(F)cc34)[C@@](C(=O)OC)(c3cc4c(cc3OC)N(C)[C@H]3[C@@](O)(C(=O)OC)[C@H](OC(C)=O)[C@]5(CC)C=CCN6CC[C@]43[C@@H]65)C2)C1 | 0.17 nM | 13 | 0.13 nM | <1 | 0.07 nM | 0.06 nM | 0.88 nM
CC[C@]1(NC(=O)c2ccc(C)c(C)c2)C[C@H]2CN(CCc3c([nH]c4ccc(F)cc34)[C@@](C(=O)OC)(c3cc4c(cc3OC)N(C)[C@H]3[C@@](O)(C(=O)OC)[C@H](OC(C)=O)[C@]5(CC)C=CCN6CC[C@]43[C@@H]65)C2)C1 | 5 nM | 1.7 | 2.5 nM | <1 | 4.5 nM | 3 nM | 7.6 nM
CC(=O)O[C@H]1C(=O)[C@@]2(C)[C@H]([C@H](OC(=O)c3ccccc3)[C@]3(O)C[C@H](OC(=O)[C@H](O)[C@@H](NC(=O)c4ccccc4)c4ccccc4)C(C)=C1C3(C)C)[C@]1(OC(C)=O)CO[C@@H]1C[C@@H]2O [PACLITAXEL] | 7.1 nM | >50 | 70 nM | 10 |  |  | > 200 nM
CC[C@]1(O)C[C@@H]2CN(CCc3c([nH]c4ccccc34)[C@@](C(=O)OC)(c3cc4c(cc3OC)N(C)[C@H]3[C@@](O)(C(=O)OC)[C@H](OC(C)=O)[C@]5(CC)C=CCN6CC[C@]43[C@@H]65)C2)C1 [VINBLASTINE] | 7.7 nM |  | 6.7 nM | <1 |  |  | 
